Reference: patent US20250051367A1, “HETEROCYCLE-CONTAINING LONP1 INHIBITOR COMPOUNDS, USES AND METHODS” (Pretzel Therapeutics, Inc., priority 2021, published 2025)

Target: LONP1 (NM_004793.4) (Homo sapiens (Human), UniProt P36776)
Experiment: LONP1 FRET-based protease activity assay (fluorogenic peptide substrate)
Assay type: biochemical
Conditions: substrate 3 μM, LONP1 15 nM, 1 hour at 37° C.; average of a minimum of two repeats
Procedure: The inhibitory activity of the compounds of the present invention against LONP1, 20S proteasome and other proteases are determined by assays known to persons of ordinary skill in the art (see, e.g., Fishovitz, J. et al. “Active-Site-Directed Chemical Tools for Profiling Mitochondrial Lon Protease” ACS Chem. Biol. 6, 781-788 (2011)).
In this Example, LONP1 (NM_004793.4) activity was measured by a FRET-based assay for protease activity using a fluorogenic peptide DabcylYRGIT(2Abu)SGRQK(5-FAM) (Cambridge Research Biochemicals) as substrate. LONP1 activity is followed by an increase in fluorescence signal due to the degradation of the peptide. Inhibition of LONP1 protease activity by an inhibitor compound of the disclosure elicits a decrease in the fluorescent signal.
The assay is performed in a 384-well plate (Greiner, cat. #781076) using the following reagents and conditions: substrate (3 μM) was incubated for 1 hour at 37° C. in the presence of LONP1 (15 nM as monomer), 25 mM Tris pH 8.0, 10 mM MgCl2, 0.03 mg/mL BSA, 0.5 mM DTT, 0.0003% Tween-20, 10 mM NaCl, 0.06 mM ATP and 0.5 mM EGTA in a 15 μL final volume. The LONP1-containing mix (10 μL) was incubated with the test compound for 15 min at 37° C. before adding the peptide-containing mix (5 μL). Solutions were dispensed using a small cassette-Multidrop Combi (Thermo Scientific). Fluorescence was measured using a PheraStar plate reader (BMG Labtech) FI-FRET EX 485 nm Em 520 nm.
Each value is based on an average of a minimum of two repeats.

Sequence of LONP1 (NM_004793.4) (P36776 68-959): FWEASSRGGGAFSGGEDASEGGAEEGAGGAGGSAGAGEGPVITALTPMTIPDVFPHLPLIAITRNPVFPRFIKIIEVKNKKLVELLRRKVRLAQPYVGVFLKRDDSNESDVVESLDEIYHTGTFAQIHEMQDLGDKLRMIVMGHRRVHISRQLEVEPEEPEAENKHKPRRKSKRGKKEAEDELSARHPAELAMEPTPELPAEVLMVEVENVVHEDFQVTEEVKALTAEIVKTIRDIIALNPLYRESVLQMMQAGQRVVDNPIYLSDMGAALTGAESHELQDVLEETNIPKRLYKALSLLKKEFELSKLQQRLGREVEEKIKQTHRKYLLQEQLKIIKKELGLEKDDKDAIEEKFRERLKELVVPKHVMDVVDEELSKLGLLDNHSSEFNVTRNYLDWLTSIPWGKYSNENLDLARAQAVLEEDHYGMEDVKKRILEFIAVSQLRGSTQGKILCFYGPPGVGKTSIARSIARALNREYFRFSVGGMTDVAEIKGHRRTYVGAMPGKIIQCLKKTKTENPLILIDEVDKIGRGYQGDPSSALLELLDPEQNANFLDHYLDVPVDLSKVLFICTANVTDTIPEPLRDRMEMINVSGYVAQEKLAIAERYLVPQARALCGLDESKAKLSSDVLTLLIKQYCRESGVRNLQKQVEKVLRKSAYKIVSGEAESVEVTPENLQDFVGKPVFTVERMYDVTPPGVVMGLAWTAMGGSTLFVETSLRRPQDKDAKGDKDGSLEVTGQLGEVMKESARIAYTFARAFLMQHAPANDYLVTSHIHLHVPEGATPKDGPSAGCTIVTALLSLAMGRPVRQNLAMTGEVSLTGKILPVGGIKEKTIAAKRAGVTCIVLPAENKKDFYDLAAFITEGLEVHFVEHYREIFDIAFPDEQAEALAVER

SMILES | IC50 [nM]
Cn1ccc(C[C@@H](NC(=O)c2cnccn2)C(=O)N[C@H](CCCc2ccccc2)B(O)O)n1 (stereo in doubt) [Compound 4, ((S)-1-((R)-3-(1-methyl-1H-pyrazol-3-yl)-2-(pyrazine-2-carboxamido)propanamido)-4-phenylbutyl)boronic acid] | < 50
O=C(N[C@H](Cc1nccs1)C(=O)N[C@@H](CCCc1ccccc1)B(O)O)c1cnccn1 [Compound 1, ((R)-4-phenyl-1-((R)-2-(pyrazine-2-carboxamido)-3-(thiazol-2-yl)propanamido)butyl)boronic acid] | < 50
O=C(N[C@@H](Cc1nccs1)C(=O)N[C@@H](CCCc1ccccc1)B(O)O)c1cnccn1 [Compound 2, ((R)-4-phenyl-1-((S)-2-(pyrazine-2-carboxamido)-3-(thiazol-2-yl)propanamido)butyl)boronic acid] | < 50
Cn1ccc(C[C@@H](NC(=O)c2cnccn2)C(=O)N[C@@H](CCCc2ccccc2)B(O)O)n1 [Compound 3, ((R)-1-((R)-3-(1-methyl-1H-pyrazol-3-yl)-2-(pyrazine-2-carboxamido)propanamido)-4-phenylbutyl)boronic acid] | < 50
O=C(N[C@H](Cc1cnco1)C(=O)N[C@@H](CCCc1ccccc1)B(O)O)c1cnccn1 [Compound 5, ((R)-1-((R)-3-(oxazol-5-yl)-2-(pyrazine-2-carboxamido)propanamido)-4-phenylbutyl)boronic acid] | < 50
O=C(N[C@@H](Cc1cnco1)C(=O)N[C@@H](CCCc1ccccc1)B(O)O)c1cnccn1 [Compound 6] | < 50
O=C(N[C@H](Cc1c[nH]c2ccccc12)C(=O)N[C@@H](CCCc1ccccc1)B(O)O)c1cnccn1 [Compound 7, ((R)-1-((R)-3-(1H-indol-3-yl)-2-(pyrazine-2-carboxamido)propanamido)-4-phenylbutyl)boronic acid] | 50 to 500
CC(C)C[C@H](NC(=O)[C@@H](Cc1nccn1C)NC(=O)c1cnccn1)B(O)O [Compound 8, ((R)-3-methyl-1-((R)-3-(1-methyl-1H-imidazol-2-yl)-2-(pyrazine-2-carboxamido)propanamido)butyl)boronic acid] | 50 to 500
CC(C)C[C@H](NC(=O)[C@H](Cc1nccn1C)NC(=O)c1cnccn1)B(O)O [Compound 9, ((R)-3-methyl-1-((S)-3-(1-methyl-1H-imidazol-2-yl)-2-(pyrazine-2-carboxamido)propanamido)butyl)boronic acid] | 50 to 500
O=C(N[C@H](Cc1ncco1)C(=O)N[C@@H](CCCc1ccccc1)B(O)O)c1cnccn1 [Compound 10, ((R)-1-((R)-3-(oxazol-2-yl)-2-(pyrazine-2-carboxamido)propanamido)-4-phenylbutyl)boronic acid] | < 50
O=C(N[C@@H](Cc1ncco1)C(=O)N[C@@H](CCCc1ccccc1)B(O)O)c1cnccn1 [Compound 11, ((R)-1-((S)-3-(oxazol-2-yl)-2-(pyrazine-2-carboxamido)propanamido)-4-phenylbutyl)boronic acid] | < 50
Cn1ccnc1C[C@@H](NC(=O)c1cnccn1)C(=O)N[C@@H](CCCc1ccccc1)B(O)O [Compound 12, ((R)-1-((R)-3-(1-methyl-1H-Imidazol-2-yl)-2-(pyrazine-2-carboxamido)propanamido)-4-phenylbutyl)boronic acid] | < 50
Cn1ccnc1C[C@H](NC(=O)c1cnccn1)C(=O)N[C@@H](CCCc1ccccc1)B(O)O [Compound 13, ((R)-1-((S)-3-(1-methyl-1H-imidazol-2-yl)-2-(pyrazine-2-carboxamido)propanamido)-4-phenylbutyl)boronic acid] | 50 to 500
